Like-named read-outs stand apart in the source and are kept apart here.
What was measured:
SynGUN4 [1] = target: T1, SynGUN4 (Synechocystis sp. PCC 6803, UniProt P72583); assay: tryptophan fluorescence quenching; type: binding
T1 construct: gene sll0558; full length, residues 1-233; E. coli BL21(DE3)

SynGUN4 [2] = target: T2, SynGUN4 (Synechocystis sp. PCC 6803, UniProt P72583, L222A); assay: tryptophan fluorescence quenching; type: binding; settings: read-out: dissociation constant
T2 construct: gene sll0558; full length, residues 1-233; E. coli BL21(DE3)
T2 sequence (P72583 whole entry L222A, the tested form may be a part): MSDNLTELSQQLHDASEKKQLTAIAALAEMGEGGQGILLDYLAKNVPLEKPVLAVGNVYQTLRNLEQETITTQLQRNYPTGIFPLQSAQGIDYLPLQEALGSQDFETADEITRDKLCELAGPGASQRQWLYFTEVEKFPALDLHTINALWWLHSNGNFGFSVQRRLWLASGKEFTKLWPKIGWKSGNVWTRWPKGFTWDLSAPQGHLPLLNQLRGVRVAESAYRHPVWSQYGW
Description: (§1) tryptophan fluorescence quenching on SynGUN4

SynGUN4 [3] = target: T3, SynGUN4 (Synechocystis sp. PCC 6803, UniProt P72583, A219G); assay: tryptophan fluorescence quenching; type: binding; settings: read-out: dissociation constant
T3 construct: gene sll0558; full length, residues 1-233; E. coli BL21(DE3)
T3 sequence (P72583 whole entry A219G, the tested form may be a part): as the sequence (P72583 whole entry L222A, the tested form may be a part) above, with A219G, A222L counted along it
Description: as §1

SynGUN4 [4] = target: T4, SynGUN4 (Synechocystis sp. PCC 6803, UniProt P72583, R214A); assay: tryptophan fluorescence quenching; type: binding; settings: read-out: dissociation constant
T4 construct: gene sll0558; full length, residues 1-233; E. coli BL21(DE3)
T4 sequence (P72583 whole entry R214A, the tested form may be a part): as the sequence (P72583 whole entry L222A, the tested form may be a part) above, with R214A, A222L counted along it
Description: as §1

SynGUN4 [5] = target: T5, SynGUN4 (Synechocystis sp. PCC 6803, UniProt P72583, R113A); assay: tryptophan fluorescence quenching; type: binding; settings: read-out: dissociation constant
T5 construct: gene sll0558; full length, residues 1-233; E. coli BL21(DE3)
T5 sequence (P72583 whole entry R113A, the tested form may be a part): as the sequence (P72583 whole entry L222A, the tested form may be a part) above, with R113A, A222L counted along it
Description: as §1

[6] = substrate: CC1=C(CCC(=O)O)c2cc3nc(cc4[nH]c(cc4C)cc4[nH]c(cc1n2)cc4C)C(C)=C3CCC(=O)O; assay: Mg-Deutero formation by fluorescence; type: biochemical, Synechocystis sp. PCC 6803; settings: no SynGUN4, 200 nM ChlH (methods: 0.1 μM ChlH), 20 mM MgCl2, 5 mM ATP, 50 mM MOPS-KOH pH 7.7, 1 mM DTT, 34 °C

T1 sequence (P72583 whole entry, the tested form may be a part): as the sequence (P72583 whole entry L222A, the tested form may be a part) above, with A222L counted along it

C=CC1=C(C)C2=NC1=Cc1c(C)c(C=C)c3[n]1[Co+][n]1c(c(C)c(CCC(=O)O)c1=CC1=NC(=C3)C(C)=C1CCC(=O)O)=C2 [Co-Proto]
Kd (SynGUN4 [1]; 50 mM MOPS-KOH pH 7.7, 150 mM NaCl, 1 mM DTT, one-site fit): 2.67 ± 0.856 µM

CC1=C(CCC(=O)O)c2cc3nc(cc4[nH]c(cc4C)cc4[nH]c(cc1n2)cc4C)C(C)=C3CCC(=O)O [Deutero]
Kd (SynGUN4 [2]): 6.61 ± 1.02 µM | Kd (SynGUN4 [3]): 1.56 ± 0.459 µM | Kd (SynGUN4 [4]): 10.9 ± 4.06 µM | Kd (SynGUN4 [5]): 7.83 ± 1.99 µM | Kd (SynGUN4 [1]): 0.865 ± 0.146 µM

B1: Synechocystis Mg-chelatase (ChlH, ChlD, ChlI) (Synechocystis sp. PCC 6803 substr. Kazusa) (protein)
chain: MFTNVKSTIRRVDPEALNGRQLLKVVYVVLESQYQSALSAAVRNINRTNSSLAIQLTGYLIEELRDPENYANFKHDVSEANLFIASLIFIEDLADKVVEAVTPYRDNLDAAIVFPSMPQVMRLNKMGSFSMAQLGQSKSAIAQFMKKRKENSSGAGFQDAMLKLLRTLPTVLKYLPVEKAQDARNFMLSFQYWLGGSQENLENFLLMLTDKYVYPDLGLDKLVNYQEPVVYPDMGIWHPLSMQMFENVKDYLEWYNQRPDISEDLKDPLAPCIGLIMQRTHLVTGDDAHYVGMVQELEAMGARVICVFSGGLDFSKPVNEYFWDKSVNGVEPLPIVDAVVSLTGFALVGGPARQDHPRAIESLKKLNRPYMCALPLVFQTTEEWEASDLGLHPIQVALQIAIPELDGAIEPIILSGRDGSTGRAIALQDRLEAIAQRAMKWANLRKKPKLDKKVAITVFSFPPDKGNVGTAAYLDVFGSIYEVMKGLQGNGYDVQDLPGSAKELMEAVIHDAQAQYNSPELNIAHRMSVEQYERLTPYSVRLEENWGKPPGHLNSDGQNLLIYGKEFGNVFIGVQPTFGYEGDPMRLLFSRSASPHHGFAAYYTYLNHIWKADAVLHFGTHGSLEFMPGKQMGMSGECYPDNLIGTIPNLYYYAANNPSEATIAKRRGYASTISYLTPPAENAGLYKGLQELNELIGSYQTLKDSGRGIQIVNTIMDQARICNLDQDVNLPDINAEEMDQGQRDTIVGSVYRKLMEIESRLLPCGLHVIGQPPSAEEAIATLVNIASLDREDEGIWALPTLIAESIGRNMEEIYRNSDKGILADVELLQDITLATRAAVAALVQEQINADGRVSFVSKLNFFKIGKKAPWVKSLCDSGYPNVNEEKLKPLFEYLEFCLEQVCADNEFGGLLQALEGEYVLPGPGGDPIRNPNVLPTGKNIHALDPQSIPTLAAVQSAKVVVDRLLERQRAENGGNYPETIASVLWGTDNIKTYGESLAQIMWMVGAKPVPDALGRVNKIELVPLEELGRPRIDVVVNCSGVFRDLFINQMNLLDQAVKLAAEADEPLEMNFVRKHALEQAEEMGIGVREAATRIFSNASGSYSSNVNLAVENSSWEDESELQEMYLKRKSFAFNSDNPGMMDQNRDMFERALKTADATFQNLDSSEISLTDVSHYFDSDPTKLISTLRDDGKAPAAYIADTTTANAQVRTLSETVRLDARTKLLNPKWYEGMLSHGYEGVRELSKRLVNTMGWSATAGAVDNWVYEDANSTFIKDEEMCKRLMDLNPNSFRRMVSTLLEVNGRGYWETSDENLERLQELYQEVEDRIEGVE
notes: with Magnesium-chelatase subunit ChlD; Magnesium-chelatase subunit ChlI
Km [6]: 7.46 ± 3.24 µM

Reference: PMC1084334 (PLoS Biology, 2005)
